{
  "source": "patent US8377434B2",
  "about": "“Cosmetic composition for exfoliating skin keratin” (Amorepacific Corporation, priority 2006, dated 2013)",
  "system": "skin",
  "experiment": "in vivo and ex vivo studies of N-acetyl glucosamine on skin",
  "data": [
    {"compound": "CC(=O)N[C@H]1C(O)O[C@H](CO)[C@@H](O)[C@@H]1O", "note": "(some centres unmarked) [N-acetyl glucosamine]", "values": [
      {"measurement": "production of hyaluronic acid", "value": "promote the production of hyaluronic acid"},
      {"measurement": "improvement of excessive pigmentation, skin tone and barrier function", "setting": "in vivo and ex vivo studies", "value": "effective in improving excessive pigmentation, skin tone and barrier function"}
    ]}
  ]
}
